Data on 1 compound can be found in patent US10010541B2, “Modulation of tissue transglutaminase activation in disease” (The Board of Trustees of the Leland Stanford Junior …, priority 2014, dated 2018).

The target of assay [1] is T1, TG2 (Homo sapiens, UniProt P21980).
T1 sequence (P21980 1-687): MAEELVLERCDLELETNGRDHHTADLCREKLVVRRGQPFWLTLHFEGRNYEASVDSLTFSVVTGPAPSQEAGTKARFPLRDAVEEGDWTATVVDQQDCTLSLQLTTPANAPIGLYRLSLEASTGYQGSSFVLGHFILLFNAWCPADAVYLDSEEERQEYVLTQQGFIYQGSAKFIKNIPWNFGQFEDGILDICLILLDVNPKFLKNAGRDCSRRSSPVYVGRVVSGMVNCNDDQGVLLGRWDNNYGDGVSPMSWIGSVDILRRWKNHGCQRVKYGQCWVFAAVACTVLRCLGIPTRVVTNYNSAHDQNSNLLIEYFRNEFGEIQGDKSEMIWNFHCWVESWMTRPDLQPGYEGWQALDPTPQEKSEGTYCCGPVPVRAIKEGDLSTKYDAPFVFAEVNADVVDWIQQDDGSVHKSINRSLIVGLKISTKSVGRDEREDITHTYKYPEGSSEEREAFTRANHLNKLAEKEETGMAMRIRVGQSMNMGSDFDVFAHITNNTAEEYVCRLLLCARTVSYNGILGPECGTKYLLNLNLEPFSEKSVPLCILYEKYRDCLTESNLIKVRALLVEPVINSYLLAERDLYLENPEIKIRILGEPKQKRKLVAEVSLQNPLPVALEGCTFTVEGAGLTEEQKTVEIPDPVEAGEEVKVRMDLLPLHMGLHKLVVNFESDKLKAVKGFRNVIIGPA
The experiment in a line: glutamate dehydrogenase-coupled deamidation assay, substrate Cbz-Gln-Gly. It is filed as biochemical. To be noted: irreversible inhibition model, full progress curves.

The target in assay [2] is T2, TG2 (Mus musculus, UniProt P21981).
T2 construct: host or cells: mice (in vivo)
T2 sequence (P21981 1-686): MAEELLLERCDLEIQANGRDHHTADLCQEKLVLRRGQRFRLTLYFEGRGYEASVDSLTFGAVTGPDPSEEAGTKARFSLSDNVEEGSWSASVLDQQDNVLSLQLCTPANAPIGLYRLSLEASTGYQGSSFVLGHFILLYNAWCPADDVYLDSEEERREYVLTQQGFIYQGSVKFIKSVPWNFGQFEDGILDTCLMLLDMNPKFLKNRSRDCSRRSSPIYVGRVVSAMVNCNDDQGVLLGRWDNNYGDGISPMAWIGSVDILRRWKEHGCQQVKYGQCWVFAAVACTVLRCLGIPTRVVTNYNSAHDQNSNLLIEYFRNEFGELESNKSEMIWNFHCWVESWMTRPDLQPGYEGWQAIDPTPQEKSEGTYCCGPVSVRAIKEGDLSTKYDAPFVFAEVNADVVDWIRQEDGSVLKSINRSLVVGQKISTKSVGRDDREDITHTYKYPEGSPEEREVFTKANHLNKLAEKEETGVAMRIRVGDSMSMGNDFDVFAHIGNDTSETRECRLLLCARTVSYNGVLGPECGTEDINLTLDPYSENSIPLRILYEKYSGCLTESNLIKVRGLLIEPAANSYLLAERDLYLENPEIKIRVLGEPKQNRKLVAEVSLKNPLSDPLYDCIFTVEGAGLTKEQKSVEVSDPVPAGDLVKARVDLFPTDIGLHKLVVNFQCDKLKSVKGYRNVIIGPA
Kind of assay: TG2 activity (5-BP probe) in tissues of LPS-induced septic mice. The assay is classed as in vivo. To be noted: septic mice (LPS 5 mg/kg iv); 50 mg/kg intraperitoneally. The procedure: FIG. 2: TG2 is active in septic mice and can be inhibited by the intraperitoneal administration of 50 mg/kg CK996: Panels (A) through (C) depict tissues from the liver, lung and small intestine from septic male BL6 mice that were stained for TG2 protein (top row) or TG2 activity (middle row). The bottom row depicts the merged images from the TG2 protein and activity channel, respectively. Tissues from mice that had received the TG2 inhibitor CK996 are shown in the right set of images in each panel whereas tissues from control mice that received vehicle only are shown in the left set of images. Panel (D) quantifies the ratio of TG2 activity to TG2 protein signal intensity. All mice in this study received lipopolysaccharide (LPS, 5 mg/kg i.v., at t=0) and the TG2 activity-based probe 5-biotinamidopentylamine (5-BP, 100 mg/kg i.p., at t=0 and 90 min)(Dafik et al., 2012; Siegel et al., 2008). One cohort of mice additionally received an intraperitoneal dose of the TG2 inhibitor CK996 (50 mg/kg i.p., at t=0 and 60 min) in vehicle (PBS with 10% DMSO and 2% 2,6-di-(OMe)-beta-cyclodextrin), whereas the control mice received the vehicle alone. At 3 hours the mice were euthanized, tissues collected and frozen in OCT medium and then TG2 protein and activity (5-BP) stained, imaged and quantified as described in the literature (Diraimondo et al., 2013 ACS Chem. Biol.). […]

The structures appear in SMILES notation.

With `O=C(N[C@@H]1C[C@@H](C(=O)NC[C@@H]2CC(Br)=NO2)N(C(=O)OCc2cnc3ccccc3c2)C1)c1cccnc1` [Compound 5, (2S,4R)-quinolin-3-ylmethyl 2-((((S)-3-bromo-4,5-dihydroisoxazol-5-yl)methyl)carbamoyl)-4-(nicotinamido)pyrrolidine-1-carboxylate], the “kinh/Ki TG2” value at TG2 [1] was found to be 1800 M⁻¹ s⁻¹. Besides, the “TG2 activity in intestines, livers and lungs” value on TG2 [2] is given as “fully suppressed”.
